We go through 2 substances from patent US10344330B2, “Glatiramer acetate response biomarker mRNA potency assay” (Mylan Inc., priority 2013, dated 2019).

One assay has as its system mIL-4 mRNA in LN cells. The experiment in a line: mIL-4 mRNA in LN cells of Copaxone P53974-immunized CSJLF1/JRj mice, three identical experiments (Example VII). Particulars: 2.5 μg/mL, 6 hours. It is filed as cell-based, mouse. The method, then:
(§1) A real-time polymerase chain reaction method was used to measure the expression of IL-2, IL-4, IL-5, and IL-13 mRNA in GA-stimulated LN cells from GA-immunized mice. Three identical experiments were carried out. In each experiment, mice were immunized with GA, and LN cells from each group of mice were stimulated with each of six concentrations of the same batch of GA used for immunization. GAPDH and β-actin were used as reference genes.
(§2) Each of the three groups consisted of four female CSJLF1/JRj (Janvier Labs) mice, approximately 8-12 weeks of age. On Day 0, mice were immunized by injection of 0.1 mL injection volume into four footpads (about 10 μL into each of the front footpad, 40 μL into each of the hind footpad). The immunization contained a total dose of 250 μg of one lot of GA (Copaxone batch P53974)+CFA (0.5 mg/mL). On Day 10 post-immunization, lymph cells were isolated from animals and stimulated with enriched DCCM-1 (mock-stimulated vehicle control), 2.5 μg/mL Concanavalin A (ConA, a positive control) or GA.
(§3) Ten days following immunization, LN cell samples isolated from the immunized mice each were stimulated with 0.3, 1, 2.5, 5, 10, or 20 μg/mL of Copaxone batch P53974 as shown in Table 43.
(§4) Total RNA was isolated from stimulated LN cells after 6 hours of incubation at about 37° C. in a humidified CO2 incubator, using the SV 96 Total RNA Isolation System according to the manufacturer's protocol (Promega, Cat. #Z3500). cDNA was synthesized from each RNA sample in triplicate using High Capacity cDNA Reverse Transcription Kit (Life Technologies, formerly Applied Biosystems) according to the manufacturer's protocol.
(§5) Samples were prepared using TaqMan Universal PCR Master Mix II (Life Technologies) and run in 96-well plates using a Real-Time PCR system (7500, Life Technologies) using the following program for Real-Time PCR:
(§6) The levels of cytokine mRNA were calculated using a standard ΔΔCT method as described previously.

The subject of assay [1] is mouse IL-2 mRNA in primary LN cells. The experiment in a line: Mouse IL-2 mRNA in LN cells of Copaxone P53974-immunized CSJLF1/JRj mice stimulated with twelve GA lots (Example VIII). The assay is classed as cell-based. The method, then:
(§7) A real-time polymerase chain reaction method was used to measure the expression of IL-2, IL-4, IL-5, and IL-13 mRNA in LN cells, from GA-immunized mice, following stimulation with one of twelve GA lots. One lot of GA (Copaxone P53974) was used for immunization. […] Twenty female CSJLF1/JRj mice (Janvier Labs), approximately 8-12 weeks of age, were immunized by injection of 0.1 mL injection volume into four footpads (about 10 μL into each of the front footpad, 40 μL into each of the hind footpad) on Day 0. […] Samples were prepared using TaqMan Universal PCR Master Mix II (Life Technologies) and run in 96-well plates using a Real-Time PCR system (7500, Life Technologies) using the following RT-PCR program: The levels of cytokine mRNA were calculated using a standard ΔΔCT method as described previously.

In the next assay the test system is mIL-5 mRNA in LN cells. The assay is described as follows: mIL-5 mRNA in LN cells of Copaxone P53974-immunized CSJLF1/JRj mice, three identical experiments (Example VII). The assay is classed as cell-based, mouse. Particulars: 2.5 μg/mL, 6 hours. The method, then:
as §1, §2, §3, §4, §5, §6

The subject of a further assay is mIL-13 mRNA in LN cells. The experiment in a line: mIL-13 mRNA in LN cells of Copaxone P53974-immunized CSJLF1/JRj mice, three identical experiments (Example VII). It is filed as cell-based, mouse. Particulars: 2.5 μg/mL, 6 hours. The protocol:
as §1, §2, §3, §4, §5, §6

Assay [2] concerns mouse IL-5 mRNA in primary LN cells. The experiment in a line: Mouse IL-5 mRNA in LN cells of Copaxone P53974-immunized CSJLF1/JRj mice stimulated with twelve GA lots (Example VIII). It is filed as cell-based. To be noted: stimulation conc. 2.5 μg/mL; for IL-5 mRNA/GAPDH Fold Change: normalized to GAPDH. The method, then: as §7
Another assay concerns mIL-2 mRNA in LN cells. The assay is described as follows: mIL-2 mRNA in LN cells of Copaxone P53974-immunized CSJLF1/JRj mice, three identical experiments, GAPDH and β-actin reference (Example VII). It is filed as cell-based, mouse. Particulars: 2.5 μg/mL, 6 hours. The method, then:
as §1, §2, §3, §4, §5, §6

The subject of assay [3] is mouse IL-13 mRNA in primary LN cells. The assay is described as follows: Mouse IL-13 mRNA in LN cells of Copaxone P53974-immunized CSJLF1/JRj mice stimulated with twelve GA lots (Example VIII). It is filed as cell-based. To be noted: stimulation conc. 2.5 μg/mL; normalized to B-Actin. The protocol: as §7
Assay [4] relates to mouse CD25 (IL-2ra) mRNA in primary LN cells. The assay is described as follows: Mouse CD25 mRNA in LN cells of Copaxone P53974-immunized CSJLF1/JRj mice stimulated with GA lots (Example VIII). It is filed as cell-based. Particulars: stimulation conc. 2.5 μg/mL, relative to DCCM1 medium control. The protocol:
[The procedure below names another target; the source lists this target under the same test.] as §7

Assay [5] concerns mouse IL-17 mRNA in primary LN cells. The experiment in a line: Mouse IL-17 mRNA in LN cells of Copaxone P53974-immunized CSJLF1/JRj mice stimulated with GA lots (Example VIII). Particulars: stimulation conc. 2.5 μg/mL; for IL-17 mRNA/B-Actin Fold Change: normalized to B-Actin; for IL-17 mRNA/GAPDH Fold Change: normalized to GAPDH. It is filed as cell-based. The protocol:
[The procedure below names another target; the source lists this target under the same test.] as §7

The next assay has as its system secreted IL-2. The assay is described as follows: Secreted IL-2 from treated LN cells (other experiments, data not shown). Particulars: increasing concentrations. The assay is classed as cell-based, mouse. The text has this:
This dose-dependent response was consistent for both test and reference compounds independent of whether Copaxone® or Mylan GMA was used as the immunizing antigen.

[6] abbreviates: Plate 1, positive control 2.5 μg/mL listed in the C1 section.
[7] abbreviates: Plate 1, positive control 2.5 μg/mL listed in the C2 section.
Setting [8] is: Plate 1, positive control 2.5 μg/mL listed in the C3 section.
[9] abbreviates: relative to DCCM1 medium control.

“And” between values parts separate entries of the source, which are not always exact repeats. Identical values can stand only once.

With “Concanavalin A [ConA, reference compound]”, the figures for the “IL-4 mRNA/Actβ Fold Change” value in the assay with mIL-4 mRNA in LN cells (Group 1), in the assay with mIL-4 mRNA in LN cells (Group 2) and with mIL-4 mRNA in LN cells (Group 3) were 54.5 fold, 38.5 fold and 35.7 fold, respectively. The “IL-4 mRNA/GAPDH Fold Change” value in the assay with mIL-4 mRNA in LN cells (Group 1) is listed as 35.6 fold; with mIL-4 mRNA in LN cells (Group 2) it was 34.2 fold; with mIL-4 mRNA in LN cells (Group 3), 21.8 fold. In addition, the “IL-2 mRNA/B-Actin Fold Change” value in assay [1] (setting [6]) is 118.1 fold; in assay [1] (setting [7]), 111.2 fold; in assay [1] (setting [8]), 105.2 fold; in [1] (stimulation conc. 2.5 μg/mL, normalized to B-Actin), 109.3 fold and 120.1 fold and 75.2 fold and 81.3 fold and 103.6 fold and 101.9 fold and 92.2 fold and 98.9 fold; in assay [1] (stimulation conc. 2.5 μg/mL, normalized to B-Actin, ΔΔCT), 106.7 fold and 96.2 fold and 103.1 fold and 120.5 fold and 121.8 fold. In addition, the “IL-2 mRNA/GAPDH Fold Change” value in assay [1] (setting [6]) was 116.9 fold; in assay [1] (setting [7]), 103.7 fold; in assay [1] (setting [8]), 87.6 fold; in assay [1] (stimulation conc. 2.5 μg/mL, normalized to GAPDH) it was 103.2 fold and 111.7 fold and 82.0 fold and 84.8 fold and 158.0 fold and 127.7 fold and 102.6 fold and 127.5 fold; in [1] (stimulation conc. 2.5 μg/mL, normalized to GAPDH, ΔΔCT), 100.3 fold and 92.7 fold and 99.8 fold and 147.4 fold and 131.3 fold; in the assay on mIL-2 mRNA in LN cells (Group 1) it was 102.9 fold. The “IL-2 mRNA/GAPDH Fold Change” value is on record as 122.2 fold in the assay with mIL-2 mRNA in LN cells (Group 2) and 55.8 fold with mIL-2 mRNA in LN cells (Group 3). The “IL-5 mRNA/Actβ Fold Change” value came to 16.6 fold with mIL-5 mRNA in LN cells (Group 1), 25.4 fold in the assay with mIL-5 mRNA in LN cells (Group 2) and 12.4 fold in the assay on mIL-5 mRNA in LN cells (Group 3). The “IL-5 mRNA/GAPDH Fold Change” value with mIL-5 mRNA in LN cells (Group 1) is 12.0 fold; in the assay with mIL-5 mRNA in LN cells (Group 2) it was 21.4 fold; in the assay with mIL-5 mRNA in LN cells (Group 3) it was 8.6 fold; in assay [2] it was 23.6 fold and 20.0 fold and 20.6 fold and 22.3 fold; in assay [2] (ΔΔCT) it was 25.7 fold and 32.7 fold and 22.2 fold and 20.8 fold and 26.0 fold and 25.2 fold and 30.3 fold and 29.3 fold. For the same substance, the “IL-13 mRNA/Actβ Fold Change” value in the assay with mIL-13 mRNA in LN cells (Group 1) is listed as 33.3 fold; in the assay on mIL-13 mRNA in LN cells (Group 2), 28.4 fold; with mIL-13 mRNA in LN cells (Group 3), 25.7 fold. The “IL-13 mRNA/GAPDH Fold Change” value in the assay on mIL-13 mRNA in LN cells (Group 1) came out at 24.1 fold; in the assay on mIL-13 mRNA in LN cells (Group 2), 23.8 fold; in the assay with mIL-13 mRNA in LN cells (Group 3), 17.8 fold. Further, the “IL-5 mRNA/B-Actin Fold Change” value in assay [2] (normalized to B-Actin) is 23.6 fold and 20.9 fold and 21.3 fold and 21.4 fold. Besides, the “IL-2 mRNA/Actβ Fold Change” value in the assay with mIL-2 mRNA in LN cells (Group 1) worked out at 157.7 fold; in the assay on mIL-2 mRNA in LN cells (Group 2), 137.4 fold; in the assay with mIL-2 mRNA in LN cells (Group 3) it was 91.7 fold. Moreover, the “IL-13 mRNA/B-Actin Fold Change” value in assay [3] is 29.3 fold. Moreover, the “CD25 mRNA/B-Actin Fold Change” value in assay [4] (normalized to B-Actin) was 4.1 and 5.6 and 4.7 and 5.2 and 5.0 and 5.1. Besides, the “CD25 mRNA/GAPDH Fold Change” value in assay [4] (normalized to GAPDH) was 3.6 and 4.4 and 4.5 and 5.6 and 4.8 and 4.6 and 4.7. Besides, the “IL-17 mRNA/B-Actin Fold Change” value was 133.2 fold and 224.2 fold and 128.3 fold and 204.1 fold in [5]; 67.2 and 83.0 and 70.9 and 64.8 in [5] (setting [9]). In addition, the “IL-17 mRNA/GAPDH Fold Change” value is 125.8 fold and 208.6 fold and 139.9 fold and 213.0 fold in assay [5]; 102.6 and 104.0 and 78.8 and 83.6 in assay [5] (setting [9]).
In the case of “L-glutamic acid polymer with L-alanine, L-lysine and L-tyrosine, acetate (salt) [GA]”, the “secreted IL-2 from treated cells” value in the assay on secreted IL-2 is reported as “increased in dose-dependent fashion”.
